From the NIST ThermoML archive (doi:10.1016/j.fluid.2005.05.012)

Experiment: xn = mol fraction of the nth substance listed
Conditions: 101.33 kPa, Liquid

CN1CCNCC1 [N-methylpiperazine] + CCCO
Conditions	mass density, 293.15 K [kg/m3]	mass density, 298.15 K [kg/m3]	mass density, 303.15 K [kg/m3]	viscosity, 293.15 K [mPa·s]	viscosity, 298.15 K [mPa·s]	viscosity, 303.15 K [mPa·s]
x2 = 0	903.79	899.8	894.54	2.1	1.841	1.624
x2 = 0.1017	899.72	895.76	890.62	2.24	1.962	1.716
x2 = 0.1987	895.17	891.23	886.21	2.369	2.058	1.809
x2 = 0.3	889.62	885.71	880.86	2.536	2.2	1.932
x2 = 0.4007	883.15	879.31	874.64	2.689	2.326	2.035
x2 = 0.4998	875.68	871.91	867.4	2.817	2.438	2.129
x2 = 0.5504	871.35	867.6	863.18	2.863	2.478	2.167
x2 = 0.6011	866.59	862.85	858.5	2.895	2.506	2.192
x2 = 0.6542	861.09	857.34	853.04	2.885	2.504	2.193
x2 = 0.7001	855.83	852.05	847.8	2.874	2.497	2.186
x2 = 0.7495	849.57	845.75	841.53	2.833	2.473	2.175
x2 = 0.7991	842.55	838.67	834.47	2.752	2.413	2.124
x2 = 0.902	825.1	821.08	816.93	2.54	2.23	1.98

CN1CCNCC1 [N-methylpiperazine] + CCO
Conditions	mass density, 293.15 K [kg/m3]	mass density, 298.15 K [kg/m3]	mass density, 303.15 K [kg/m3]	viscosity, 293.15 K [mPa·s]	viscosity, 298.15 K [mPa·s]	viscosity, 303.15 K [mPa·s]
x2 = 0	903.79	899.8	894.54	2.1	1.841	1.624
x2 = 0.1002	900.18	896.19	891.01	2.141	1.87	1.65
x2 = 0.1994	896.41	892.42	887.31	2.206	1.924	1.694
x2 = 0.3003	891.73	887.75	882.73	2.27	1.977	1.741
x2 = 0.3493	889.02	885.06	880.09	2.285	1.992	1.753
x2 = 0.4021	885.73	881.8	876.89	2.301	2.009	1.771
x2 = 0.451	882.31	878.41	873.55	2.288	2.001	1.764
x2 = 0.5004	878.44	874.56	869.77	2.267	1.977	1.746
x2 = 0.5994	869.22	865.36	860.68	2.175	1.909	1.698
x2 = 0.7011	857.04	853.14	848.58	1.996	1.772	1.595
x2 = 0.8003	841.28	837.28	832.81	1.779	1.591	1.429
x2 = 0.8982	820.12	815.97	811.57	1.526	1.366	1.239

CN1CCNCC1 [N-methylpiperazine] + CO
Conditions	mass density, 293.15 K [kg/m3]	mass density, 298.15 K [kg/m3]	mass density, 303.15 K [kg/m3]	viscosity, 293.15 K [mPa·s]	viscosity, 298.15 K [mPa·s]	viscosity, 303.15 K [mPa·s]
x2 = 0	903.8	899.8	894.52	2.1	1.841	1.624
x2 = 0.1021	902.85	899.04	893.84	2.103	1.849	1.643
x2 = 0.1999	901.87	898.08	892.86	2.147	1.897	1.692
x2 = 0.3286	899.35	895.54	890.39	2.167	1.924	1.722
x2 = 0.4143	896.64	892.82	887.8	2.141	1.897	1.676
x2 = 0.4991	892.94	889.13	884.25	2.04	1.8	1.61
x2 = 0.6016	886.48	882.68	877.91	1.875	1.654	1.475
x2 = 0.6999	876.84	873	868.21	1.62	1.447	1.299
x2 = 0.7998	860.91	856.96	851.99	1.306	1.169	1.06
x2 = 0.8999	834.46	830.26	825.04	0.935	0.854	0.788

CCCCO [butan-1-ol] + CN1CCNCC1
x1 = 1
Conditions	mass density [kg/m3]	viscosity [mPa·s]
293.15 K	809.97	2.938
298.15 K	806.15	2.572
303.15 K	802.14	2.271

CCO [ethanol] + CN1CCNCC1
x1 = 1
Conditions	mass density [kg/m3]	viscosity [mPa·s]
293.15 K	789.32	1.17
298.15 K	785.06	1.078
303.15 K	780.68	0.982

CO [methanol] + CN1CCNCC1
x1 = 1
Conditions	mass density [kg/m3]	viscosity [mPa·s]
293.15 K	791.09	0.593
298.15 K	786.48	0.551
303.15 K	781.22	0.509
